Our source for the IC50, CC50 and EC50 values is publication PMC9960243, “Cytotoxic and Antileishmanial Effects of the Monoterpene β-Ocimene” (Pharmaceuticals, 2023).

Read-outs that look alike come from different tables or passages of the source.

A word on the IC50: it is the concentration that gives 50% inhibition. The CC50 is the concentration at which the toxic effect on the cells reaches its halfway point. Lower therefore signals harm at low concentration. Usually EC50 stands for the concentration giving half of the maximal effect.

In series [1] the test system is L. infantum promastigotes. The arrangement: method as in PMID 31151304. Conditions: read-out: IC50 against L. infantum promastigotes; cited from earlier work.
The subject of another series is RAW 264.7 macrophages. The series is described as follows: Cytotoxic effect on mammalian cells (MTT, 72 h), RAW 264.7. Conditions: MTT. It counts as cell-based. As to the method:
(§1) RAW 264.7 lineage macrophages (available from the cell bank in Rio de Janeiro, Brazil) were used, grown in sterile bottles with DMEM medium, pH 7.2 containing 10% FBS and 1% penicillin 100 U/mL and streptomycin 100 μg/mL, and kept in an oven at 37 °C and 5% CO2.
(§2) In a 96-well plate, RAW 264.7 macrophages were plated at 10^5 cells per well in 100 μL of supplemented DMEM medium. The plate was incubated for 3 h at 37 °C and 5% CO2 for cell adhesion. Afterwards, to remove non-adhered cells, washing with PBS (phosphate-buffered saline solution) was performed. Furthermore, 100 μL of DMEM supplemented with β-ocimene (3.12–400 μM), and the reference drugs, meglumine antimoniate (250–2000 μM) and amphotericin B (0.062–0.5 μM) were then added to the wells, with oven incubation at 37 °C, and 5% CO2 for 72 h. Then, 10 μL of MTT (5 mg/mL) per well was then added, being kept for another 4 h in an oven at 37 °C and 5% CO2. The supernatant was removed, and 100 µL of DMSO was added to all wells. After 30 min of stirring, readings were taken at 540 nm. DMEM supplemented with 0.5% DMSO was used as a negative control and considered as 100% macrophage viability. The selectivity index for each treatment was calculated by dividing the CC50 by the IC50, or EC50 [32].

Series [2] deals with RAW 264.7 macrophages infected with Leishmania amazonensis. The series is described as follows: Treatment of infected macrophages (intra-macrophagic amastigotes, 72 h). It counts as cell-based. The conditions noted are these: 72 h, infected RAW 264.7 macrophages, read-out: Intramacrophagic Amastigotes EC50. The procedure:
In a 24-well plate with 13 mm round sterile cover slips, RAW 264.7 macrophages were added (at a concentration of 10^5 cells to 1 mL of supplemented DMEM. For cell adhesion, the plates were incubated at 37 °C and 5% CO2 for 3 h. Three washes were then performed with PBS at 37 °C to discard non-adherent cells, after which 1 mL of DMEM supplemented (stationary phase) promastigote forms of L. amazonensis was added at the ratio of 10 promastigotes per macrophage. The plate was then incubated at 5% CO2 and 37 °C for 4 h. After infection, the medium was aspirated and the treatment was added using 1 mL of DMEM supplemented with β-ocimene (3.12–25 μM) with the reference drugs, meglumine antimoniate (1.56–200 μM) and amphotericin B (0.031–2 μM), this was subsequently incubated at 37 °C and 5% CO2 for 72 h. Finally, the coverslips were removed, fixed, stained, and mounted on permanent slides using Entellan. The number of infected macrophages and the number of parasites per macrophage were counted: 300 cells were evaluated on each slide at 1000× magnification. The infection index was calculated by multiplying the number of infected macrophages by the number of amastigotes per infected macrophage. The negative control was performed using DMEM with 0.5% DMSO. The supernatant was removed at the end of the experiment and kept at −20 °C for later use in nitric oxide dosing tests.

In series [3] the test system is Leishmania (Leishmania) amazonensis axenic amastigotes. The series is described as follows: microbe, parasite or virus in culture. It counts as cell-based. Conditions: 72 h, MTT. As to the method:
(§3) Strains of Leishmania (Leishmania) amazonensis (IFLA/BR/67/PH8) (promastigote form) were cultivated in Schneider’s insect medium (supplemented with 10% FBS, and 1% antibiotic solution), at 26 °C, and at pH 7, in a biological oxygen demand (BOD) incubator. To transform the promastigote forms into axenic amastigotes, the temperature was increased to 32 °C and the pH of the medium was adjusted to 5.5 [14].
(§4) Promastigote and axenic amastigote growth inhibition was tested as previously described by DIAS et al.. In a 96-well plate, parasites were seeded at 10^6 parasites per well in 100 μL of supplemented Schneider medium. The parasites were treated with differing concentrations of β-ocimene (1.56–12.5 μM), and reference drugs, meglumine antimoniate (500–40,000 μM) and amphotericin B (0.062–0.5 μM). The plates were incubated in a BOD incubator at 26 °C for 72 h. Afterwards, 10 µL of MTT (5 mg/mL) was added to each well, and the plate was incubated again for 4 h, when 50 µL of 10% SDS was added. Absorbances were then measured using an ELISA plate reader (BioSystems model ELx800, Curitiba, PR, Brazil) at 540 nm. The negative control consisted of Schneider medium with 0.5% DMSO and was considered as 0% inhibition.

Series [4] concerns Leishmania (Leishmania) amazonensis promastigotes. In words: microbe, parasite or virus in culture. It counts as cell-based. Conditions: 72 h, MTT. As to the method: as §3, §4
Another series relates to Vero cells. The series is described as follows: Cytotoxic effect on mammalian cells, Vero. It counts as cell-based.
The test system of series [5] is L. amazonensis promastigotes. The arrangement: method as in PMID 19321295. Conditions: read-out: IC50 against L. amazonensis promastigotes; cited from earlier work.
Series [6] has as its system L. amazonensis axenic amastigotes. The arrangement: method as in PMID 23457021. The conditions noted are these: read-out: IC50 against axenic amastigotes of L. amazonensis; cited from earlier work.
Series [7] can be described thus: Cytotoxic effect on mammalian cells (MTT, 72 h), RAW 264.7. It counts as cell-based. Conditions: mouse, RAW 264.7 macrophages, pH 7.2, MTT. The procedure:
as §1, §2

Series [8] can be described thus: Cytotoxic effect on mammalian cells, Vero. It counts as cell-based. Conditions: African green monkey, Vero cells.

For `Cc1ccc(C(C)C)cc1O` [carvacrol], the IC50 in [1] was 65 µM.
Regarding “Meglumine antimoniate [reference compound]”, the CC50 in the series on RAW 264.7 macrophages amounted to 15900 µM; with Vero cells it was 22800 µM. The EC50 stood at 578 ± 19.1 µM in series [2] and 1730 ± 36.8 µM in series [3]. The compound also yielded an IC50 in series [4] of 2150 ± 31 µM.
`C=C(C)[C@H]1CC=C(C)CC1` [limonene]: the IC50 in series [5] was 252 µM.
Take `NC(=S)NN=Cc1ccc([N+](=O)[O-])cc1` [4-nitrobenzaldehyde thiosemicarbazone]: the IC50 in [6] was 8 µM.
In turn, `C[C@@H]1[C@H](O)[C@@H](C)/C=C/C=C/C=C/C=C/C=C/C=C/C=C/[C@H](O[C@@H]2O[C@H](C)[C@@H](O)[C@H](N)[C@@H]2O)C[C@@H]2O[C@](O)(C[C@@H](O)C[C@@H](O)[C@H](O)CC[C@@H](O)C[C@@H](O)CC(=O)O[C@H]1C)C[C@H](O)[C@H]2C(=O)O` [Amphotericin B, reference compound] showed a CC50 at 72 h in [7] of 0.39 ± 0.03 µM. Moreover, the EC50 in series [2] (Leishmania amazonensis, RAW264.7) worked out at 0.13 µM; in series [3] (Leishmania), 0.51 ± 0.02 µM. Besides, in series [4] (Leishmania), the midpoint of inhibition, the IC50, lay at 0.35 ± 0.09 µM. This compound showed a CC50 in series [8] of 2.46 ± 0.6 µM.
Regarding `Cc1ccc(C(C)C)c(O)c1` [thymol], the IC50 in [1] is 48 µM.
